This is an account of results in the Bradley open melting point set (2014).

Each structure is given as a SMILES string.

Usually melting point stands for the temperature of the solid-liquid transition. Take `OCc1ccc(O)cc1` [4-hydroxybenzyl_alcohol]: the melting point was found to be 112 °C.
The result for `Clc1ccc(COC(Cn2ccnc2)c2ccc(Cl)cc2Cl)cc1` (stereo unspecified) [Ecostatin] reads 87 °C.
The same measure for `O=S(=O)(c1ccccc1)c1ccsc1` [3-(phenylsulfonyl)thiophene]: 116 °C; for `C=CCC1(c2ccccc2)C(=O)NC(=O)NC1=O` [phenallymal]: 156 °C.
The same measure for `Cc1ccc(C)c(CC(=O)O)c1` [2,5-dimethylphenylacetic acid]: 128 °C; for `CCCCOC(=O)c1ccc(O)cc1` [Butyl 4-hydroxybenzoate]: 69 °C.
On to `CCN(CC)c1ccc(C(=O)CBr)cc1` [2-bromo-4'-(diethylamino)acetophenone], for which the melting point worked out at 51 °C.
The result for `Clc1cc(Cl)c(-c2cc(Cl)c(Cl)c(Cl)c2Cl)cc1Cl` [PCB-180] reads 112 °C; that for `C/C(=C(/C)c1ccccc1)c1ccccc1` [[(1E)-1-Methyl-2-phenyl-1-propenyl]benzene], 65 °C; that for `NS(=O)(=O)c1cc2c(cc1Cl)NC(C1CC3C=CC1C3)NS2(=O)=O` (stereo unspecified) [Cyclothiazide], 228 °C.
The result for `C[C@@H]1C[C@H]2[C@@H]3CCC4=CC(=O)C=C[C@]4(C)[C@@]3(F)[C@@H](O)C[C@]2(C)[C@@]1(O)C(=O)CO` [Dexamethasone] reads 262 °C; that for `c1ccc(CCc2ccc(CCc3ccccc3)cc2)cc1` [1,4-bis(2-phenylethyl)benzene], 89 °C; that for `N#Cc1ccc(C#N)cc1` [terephthalonitrile], 226 °C.
The result for `O=C1C(c2ccccc2)=C(c2ccccc2)C(c2ccccc2)=C1c1ccccc1` [tetraphenylcyclopentadienone] reads 218 °C; that for `O=c1[nH]c2ccccc2n1C1CCN(CCCC(c2ccc(F)cc2)c2ccc(F)cc2)CC1` [Pimozide], 216 °C; that for `Cc1cc(Br)ccc1N=C=S` [4-bromo-2-methylphenyl isothiocyanate], 45 °C.
With `O=C(c1ccccc1)C(O)c1ccccc1` (stereo unspecified) [benzoin], the melting point stood at 134 °C.
The same measure for `COc1ccc(B(O)O)c(OC)c1OC` [2,3,4-trimethoxybenzeneboronic acid]: 77 °C; for `[2H]C([2H])([2H])S(=O)C([2H])([2H])[2H]` [Bis[(~2~H_3_)methyl] sulfoxide]: 18.4 °C.
The same measure for `O=C(O)c1c(Cl)cccc1[N+](=O)[O-]` [2-chloro-6-nitrobenzoic acid]: 164 °C; for `O=C(O)Cc1c(Cl)cccc1Cl` [2,6-dichlorophenylacetic acid]: 160 °C; for `O=C(O)CCl` [Chloroacetic acid]: 63 °C.
In the case of `CCNCC` [N-Ethylethanamine], the melting point was -50 °C.
The result for `CC(=O)N(C1=NC(=O)/C(=C/c2cc(C)n(-c3ccc(C)cc3)c2C)S1)c1ccccc1` [OSM-S-50] reads 257 °C; that for `O=C(O)c1ccc2c(c1)C(=O)OC2=O` [1,2,4-benzenetricarboxylic anhydride], 167 °C.
The compound `COc1cc(C=O)cc([N+](=O)[O-])c1O` [5-nitrovanillin] came in with a melting point of 176 °C.
The same measure for `Sc1nc2ccccc2[nH]1` [2-mercaptobenzimidazole]: 303 °C.
Compound `CCc1ccccc1` [Ethylbenzene] yielded a melting point of -94.9 °C.
As to `COc1ccc(C#N)cc1` [4-methoxybenzonitrile], the melting point came out at 59 °C.
The result for `O=C(O)c1ccccc1Br` [o-bromobenzoic_acid] reads 149 °C; that for `OB(O)c1cccc(O)c1` [3-hydroxybenzeneboronic acid], 209 °C.
The result for `CCCCCC(C)(C)O` [2-methyl-2-heptanol] reads -50 °C; that for `O=C(NC(CO)C(=O)O)OCc1ccccc1` (stereo unspecified) [N-carbobenzoxy-serine], 111 °C; that for `COCCOC` [1,2-dimethyloxyethane], -58 °C.
The same measure for `CCC1(OC(C)=O)CCC2(C)C(CCC3C4CCC(=O)C4(C)CCC32)C1` (stereo unspecified) [3-ethyl-17-oxoandrostan-3-yl acetate]: 126 °C; for `CC(=O)c1ccccc1[N+](=O)[O-]` [o-nitroacetophenone]: 30 °C; for `CC(=O)OCC1OC(C(N)=O)C(OC(C)=O)C(OC(C)=O)C1OC(C)=O` (stereo unspecified): 129 °C.
`NCCCCN` [Butane-1,4-diamine] came in with a melting point of 27.5 °C.
The result for `Oc1ccc2cccc(O)c2c1` [1,7-dihydroxynaphthalene] reads 182 °C.
The result for `Fc1ccccc1F` [1,2-difluorobenzene] reads -34 °C; that for `C=CC1(C(C)CCC)C(=O)NC(=O)NC1=O` (stereo unspecified) [vinylbital], 90 °C; that for `O=P(Oc1ccccc1)(Oc1ccccc1)Oc1ccccc1` [Triphenyl phosphate], 50.5 °C.
The result for `c1cc2ccc3cccc4ccc(c1)c2c34` [pyrene] reads 156 °C.
For `CS(=O)(=O)c1ccc(B(O)O)cc1` [4-(methylsulfonyl)benzeneboronic acid], the melting point amounted to 200 °C.
The result for `N#Cc1ccc(-c2ccc(C#N)cc2)cc1` [p,p'-dicyanobiphenyl] reads 237 °C; that for `Oc1ccc(Cl)c(O)c1` [4-Chlorobenzene-1,3-diol], 107 °C; that for `CCCNC(=O)NS(=O)(=O)c1ccc(Cl)cc1` [Chlorpropamide], 128 °C.
The same measure for `O=C(O)c1cccc2ccccc12` [1-naphthoic acid]: 161 °C; for `CCCCCCCCCCCCCCCCCCC` [Nonadecane]: 33 °C.
As for `NC(=O)Oc1ccccc1` [phenyl carbamate], the melting point was 151 °C.
The same measure for `Cn1cc([N+](=O)[O-])c(O)nc1=O` [1-Methyl-5-nitropyrimidine-2,4(1H,3H)-dione]: 269 °C; for `O=C(O)c1ccc(O)cc1O` [2,4-Dihydroxybenzoic Acid]: 226 °C.
The same measure for `Oc1ccc(-c2ccccc2)cc1` [4-phenylphenol]: 166 °C.
The result for `NC(=O)c1cccc(Cl)c1Cl` [2,3-dichlorobenzamide] reads 167 °C; that for `CN[C@@H](C)[C@H](O)c1ccccc1` [Ephedrine], 34 °C.
`CCC1(c2ccccc2)C(=O)NC(=O)NC1=O` [Phenobarbital] yielded a melting point of 176 °C.
The result for `c1ccncc1` [pyridine] reads -42 °C; that for `c1ccc(-c2c3ccccc3c(-c3ccccc3)c3ccccc23)cc1` [9,10-Diphenylanthracene], 249 °C; that for `CC(=O)CC(C)(C)O` [4-Hydroxy-4-methylpentan-2-one], -50 °C.
The same measure for `N#Cc1ccccc1C=O` [2-cyanobenzaldehyde]: 104 °C.
The result for `COc1ccc(B(O)O)cc1C` [4-methoxy-3-methylbenzeneboronic acid] reads 215 °C; that for `O=C(O)c1cc(F)c(Cl)nc1Cl` [2,6-dichloro-5-fluoronicotinic acid], 154 °C; that for `COC(=O)/C(=C\c1ccccc1)Cc1ccccc1` [methyl (2Z)-2-benzyl-3-phenylprop-2-enoate], 28 °C.
Consider `CCOC(=O)Cc1ccc(N)cc1` [ethyl 4-aminophenylacetate], for which the melting point amounted to 47 °C.
The same measure for `ClCCOCCCl` [bis(2-chloroethyl) ether]: -50 °C; for `c1ccc2c(c1)OCCOCCOCCOCCO2` [benzo-15-crown-5]: 80 °C.
The same measure for `O=C(O)COc1ccc(Cl)cc1Cl` [(2,4-Dichlorophenoxy)acetic acid]: 138 °C; for `Cc1ccccc1-c1ccccc1P(C(C)(C)C)C(C)(C)C` [2-(di-tert-butylphosphino)-2'-methylbiphenyl]: 92 °C; for `C[N+](=O)[O-]` [nitromethane]: -29 °C.
In the case of `O=C(O)c1ccc(Cl)c([N+](=O)[O-])c1` [4-chloro-3-nitrobenzoic acid], the melting point amounted to 183 °C.
`CCOC(=O)c1sc(N)nc1C` [ethyl 2-amino-4-methylthiazole-5-carboxylate] registered a melting point of 174 °C.
Consider `Brc1ccc(Oc2ccc(Br)cc2)cc1` [bis-p-bromophenyl_ether], for which the melting point stood at 60 °C.
The same measure for `Cc1cc(B(O)O)sc1C=O` [5-formyl-4-methylthiophene-2-boronic acid]: 119 °C; for `O=Cc1ccccc1Br` [o-bromobenzaldehyde]: 22 °C.
Consider `O=C(O)c1cc(F)cc(F)c1O` [3,5-difluorosalicylic acid], for which the melting point turned out to be 189 °C.
The same measure for `O=C4\C=C3/[C@@H]([C@H]2CC[C@]1([C@@H](CC[C@]1(C#C)O)[C@@H]2CC3)CC)CC4` [(-)-levonorgestrel]: 236 °C.
For `CCOC(=O)c1ccc(N)cc1` [benzocaine], the melting point came out at 92 °C.
The same measure for `C=CCCCCC` [1-heptene]: -119 °C.
The same measure for `[O-][n+]1ccccc1S` [Pyridine-2-thiol 1-oxide]: 70.5 °C; for `O=C1C=CC(=O)c2ccccc21` [1,4-naphthoquinone]: 122 °C; for `C1CCCCCCCCCCC1` [cyclododecane]: 61 °C.
